{
  "source": "patent US10221129B2",
  "about": "“Inhibitors of human immunodeficiency virus replication” (ViiV HEALTHCARE UK (NO.5) LIMITED, priority 2015, dated 2019)",
  "key": {"[1]": {"test_system": "recombinant NL4-3 virus (nef section replaced with Renilla luciferase gene) in MT-2 cells", "test": "HIV cell culture assay (antiviral activity, luciferase readout)", "type": "cell-based", "conditions": "Renilla, NL43, MT-2 cells infected for 4-5 days with recombinant NL4-3 Renilla luciferase virus", "protocol": "HIV cell culture assay—MT-2 cells, 293T cells and the proviral DNA clone of NL4-3 virus were obtained from the NIH AIDS Research and Reference Reagent Program. MT-2 cells were propagated in RPMI 1640 media supplemented with 10% heat inactivated fetal bovine serum (FBS), 100 jag/ml penicillin G and up to 100 units/mL streptomycin. The 293T cells were propagated in DMEM media supplemented with 10% heat inactivated FBS, 100 μg/mL penicillin G and 100 μg/mL streptomycin. A recombinant NL4-3 proviral clone, in which a section of the nef gene was replaced with the Renilla luciferase gene, was used to make the reference virus used in these studies. The recombinant virus was prepared through transfection of the recombinant NL4-3 proviral clone into 293T cells using Transit-293 Transfection Reagent from Mirus Bio LLC (Madison, Wis.). Supernatant was harvested after 2-3 days and the amount of virus present was titered in MT-2 cells using luciferase enzyme activity as a marker by measuring luciferase enzyme activity. Luciferase was quantitated using the EnduRen Live Cell Substrate from Promega (Madison, Wis.). Antiviral activities of compounds toward the recombinant virus were quantified by measuring luciferase activity in MT-2 cells infected for 4-5 days with the recombinant virus in the presence of serial dilutions of the compound.\n(Johnson V A, Byington R T. Infectivity Assay. In Techniques in HIV Research. ed. Aldovini A, Walker B D. 71-76. New York: Stockton Press. 1990)."}, "[2]": {"test": "Compound cytotoxicity, XTT-based colorimetric assay", "type": "cell-based", "conditions": "human, uninfected MT2 cells, day 4, XTT", "protocol": "Compound cytotoxicity and the corresponding CC50 values were determined using the same protocol as described in the antiviral assay except that uninfected cells were used. Cytotoxicity was assessed on day 4 in uninfected MT2 cells by using a XTT (2,3-bis[2-Methoxy-4-nitro-5-sulfophenyl]-2H-tetrazolium-5-carboxyanilide inner salt)-based colorimetric assay (Sigma-Aldrich, St Louis, Mo.)."}},
  "data": [
    {"compound": "COc1ccc(N(C)C(=O)[C@H](Cc2ccccc2)NC(=O)NS(=O)(=O)N2CCc3cc(C)ccc32)cc1", "note": "[CA-2]", "values": [
      {"measurement": "EC50", "setting": "[1]", "result": 0.14, "unit": "µM"},
      {"measurement": "CC50 at 4 days", "setting": "[2]", "result": "> 33.3", "unit": "µM"}
    ]},
    {"compound": "COc1ccc(N(C)C(=O)[C@H](Cc2ccccc2)NC(=O)NS(=O)(=O)N2CCc3cc(Cl)cc(Cl)c32)cc1", "note": "[CA-3]", "values": [
      {"measurement": "EC50", "setting": "[1]", "result": 5.72, "unit": "µM"},
      {"measurement": "CC50 at 4 days", "setting": "[2]", "result": "> 100", "unit": "µM"}
    ]},
    {"compound": "COc1ccc(N(C)C(=O)[C@H](Cc2ccccc2)NC(=O)NS(=O)(=O)Nc2cccc3ccccc23)cc1", "note": "[CA-4]", "values": [
      {"measurement": "EC50", "setting": "[1]", "result": 0.41, "unit": "µM"},
      {"measurement": "CC50 at 4 days", "setting": "[2]", "result": 89.4, "unit": "µM"}
    ]},
    {"compound": "COc1ccc(N(C)C(=O)[C@H](Cc2ccccc2)NC(=O)NS(=O)(=O)Nc2ccc3ccccc3c2)cc1", "note": "[CA-5]", "values": [
      {"measurement": "EC50", "setting": "[1]", "result": 0.18, "unit": "µM"},
      {"measurement": "CC50 at 4 days", "setting": "[2]", "result": "> 33.3", "unit": "µM"}
    ]},
    {"compound": "COc1ccc(N(C)C(=O)[C@H](Cc2ccccc2)NC(=O)NS(=O)(=O)Nc2ccccc2C#N)cc1", "note": "[CA-6]", "values": [
      {"measurement": "EC50", "setting": "[1]", "result": 0.38, "unit": "µM"},
      {"measurement": "CC50 at 4 days", "setting": "[2]", "result": "> 100", "unit": "µM"}
    ]},
    {"compound": "COc1ccc(N(C)C(=O)[C@H](Cc2ccccc2)NC(=O)NS(=O)(=O)Nc2ccccc2F)cc1", "note": "[CA-7]", "values": [
      {"measurement": "EC50", "setting": "[1]", "result": 0.14, "unit": "µM"},
      {"measurement": "CC50 at 4 days", "setting": "[2]", "result": "> 100", "unit": "µM"}
    ]},
    {"compound": "COc1ccc(N(C)C(=O)[C@H](Cc2ccccc2)NC(=O)NS(=O)(=O)Nc2cccc3ncccc23)cc1", "note": "[CA-8]", "values": [
      {"measurement": "EC50", "setting": "[1]", "result": 0.59, "unit": "µM"},
      {"measurement": "CC50 at 4 days", "setting": "[2]", "result": "> 100", "unit": "µM"}
    ]},
    {"compound": "COc1ccc(N(C)C(=O)[C@H](Cc2ccccc2)NC(=O)NS(=O)(=O)Nc2cccc(C#N)c2)cc1", "note": "[CA-9]", "values": [
      {"measurement": "EC50", "setting": "[1]", "result": 0.26, "unit": "µM"},
      {"measurement": "CC50 at 4 days", "setting": "[2]", "result": "> 100", "unit": "µM"}
    ]},
    {"compound": "COc1ccc(N(C)C(=O)[C@H](Cc2ccccc2)NC(=O)NS(=O)(=O)Nc2cccc(F)c2)cc1", "note": "[CA-10]", "values": [
      {"measurement": "EC50", "setting": "[1]", "result": 0.07, "unit": "µM"},
      {"measurement": "CC50 at 4 days", "setting": "[2]", "result": "> 100", "unit": "µM"}
    ]},
    {"compound": "COc1ccc(N(C)C(=O)[C@H](Cc2ccccc2)NC(=O)NS(=O)(=O)Nc2ccc3c(c2)CCC3)cc1", "note": "[CA-11]", "values": [
      {"measurement": "EC50", "setting": "[1]", "result": 0.07, "unit": "µM"},
      {"measurement": "CC50 at 4 days", "setting": "[2]", "result": "> 100", "unit": "µM"}
    ]},
    {"compound": "COc1ccc(N(C)C(=O)[C@H](Cc2ccccc2)NC(=O)NS(=O)(=O)Nc2ccc(Cl)c(Cl)c2)cc1", "note": "[CA-12]", "values": [
      {"measurement": "EC50", "setting": "[1]", "result": 0.09, "unit": "µM"},
      {"measurement": "CC50 at 4 days", "setting": "[2]", "result": "> 33.3", "unit": "µM"}
    ]},
    {"compound": "COc1ccc(N(C)C(=O)[C@H](Cc2ccccc2)NC(=O)NS(=O)(=O)Nc2ccc(C)c(C)c2)cc1", "note": "[CA-13]", "values": [
      {"measurement": "EC50", "setting": "[1]", "result": 0.06, "unit": "µM"},
      {"measurement": "CC50 at 4 days", "setting": "[2]", "result": "> 100", "unit": "µM"}
    ]},
    {"compound": "COc1ccc(N(C)C(=O)[C@H](Cc2ccccc2)NC(=O)NS(=O)(=O)Nc2cc(C)cc(C)c2)cc1", "note": "[CA-14]", "values": [
      {"measurement": "EC50", "setting": "[1]", "result": 0.12, "unit": "µM"},
      {"measurement": "CC50 at 4 days", "setting": "[2]", "result": "> 33.3", "unit": "µM"}
    ]},
    {"compound": "COc1ccc(N(C)C(=O)[C@H](Cc2ccccc2)NC(=O)NS(=O)(=O)Nc2ccc(C#N)cc2)cc1", "note": "[CA-15]", "values": [
      {"measurement": "EC50", "setting": "[1]", "result": 0.07, "unit": "µM"},
      {"measurement": "CC50 at 4 days", "setting": "[2]", "result": "> 100", "unit": "µM"}
    ]},
    {"compound": "COc1ccc(N(C)C(=O)[C@H](Cc2ccccc2)NC(=O)NS(=O)(=O)Nc2ccc(Br)cc2)cc1", "note": "[CA-16]", "values": [
      {"measurement": "EC50", "setting": "[1]", "result": 0.09, "unit": "µM"},
      {"measurement": "CC50 at 4 days", "setting": "[2]", "result": "> 100", "unit": "µM"}
    ]},
    {"compound": "COc1ccc(N(C)C(=O)[C@H](Cc2ccccc2)NC(=O)NS(=O)(=O)Nc2ccc(NC(C)=O)cc2)cc1", "note": "[CA-17]", "values": [
      {"measurement": "EC50", "setting": "[1]", "result": 1.94, "unit": "µM"},
      {"measurement": "CC50 at 4 days", "setting": "[2]", "result": "> 100", "unit": "µM"}
    ]},
    {"compound": "COc1ccc(N(C)C(=O)[C@H](Cc2ccccc2)NC(=O)NS(=O)(=O)Nc2ccc(Oc3ccccc3)cc2)cc1", "note": "[CA-18]", "values": [
      {"measurement": "EC50", "setting": "[1]", "result": 0.35, "unit": "µM"},
      {"measurement": "CC50 at 4 days", "setting": "[2]", "result": "> 33.3", "unit": "µM"}
    ]},
    {"compound": "COc1ccc(N(C)C(=O)[C@H](Cc2ccccc2)NC(=O)NS(=O)(=O)Nc2ccc(C(C)=O)cc2)cc1", "note": "[CA-19]", "values": [
      {"measurement": "EC50", "setting": "[1]", "result": 0.12, "unit": "µM"},
      {"measurement": "CC50 at 4 days", "setting": "[2]", "result": "> 100", "unit": "µM"}
    ]},
    {"compound": "COc1ccc(N(C)C(=O)[C@H](Cc2ccccc2)NC(=O)NS(=O)(=O)Nc2ccc(C(C)(C)C)cc2)cc1", "note": "[CA-20]", "values": [
      {"measurement": "EC50", "setting": "[1]", "result": 0.04, "unit": "µM"},
      {"measurement": "CC50 at 4 days", "setting": "[2]", "result": "> 100", "unit": "µM"}
    ]},
    {"compound": "COc1ccc(N(C)C(=O)[C@H](Cc2ccccc2)NC(=O)NS(=O)(=O)Nc2ccc(C(C)C)cc2)cc1", "note": "[CA-21]", "values": [
      {"measurement": "EC50", "setting": "[1]", "result": 0.08, "unit": "µM"},
      {"measurement": "CC50 at 4 days", "setting": "[2]", "result": "> 100", "unit": "µM"}
    ]},
    {"compound": "COc1ccc(N(C)C(=O)[C@H](Cc2ccccc2)NC(=O)NS(=O)(=O)Nc2ccccc2C(N)=O)cc1", "note": "[CA-22]", "values": [
      {"measurement": "EC50", "setting": "[1]", "result": 2.51, "unit": "µM"},
      {"measurement": "CC50 at 4 days", "setting": "[2]", "result": "> 100", "unit": "µM"}
    ]},
    {"compound": "CCN(c1ccccc1)S(=O)(=O)NC(=O)N[C@@H](Cc1ccccc1)C(=O)N(C)c1ccc(OC)cc1", "note": "[CA-23]", "values": [
      {"measurement": "EC50", "setting": "[1]", "result": 0.06, "unit": "µM"},
      {"measurement": "CC50 at 4 days", "setting": "[2]", "result": "> 100", "unit": "µM"}
    ]},
    {"compound": "COc1ccc(N(C)C(=O)[C@H](Cc2ccccc2)NC(=O)NS(=O)(=O)Nc2ccc3ncsc3c2)cc1", "note": "[CA-24]", "values": [
      {"measurement": "EC50", "setting": "[1]", "result": 0.06, "unit": "µM"},
      {"measurement": "CC50 at 4 days", "setting": "[2]", "result": "> 100", "unit": "µM"}
    ]},
    {"compound": "COc1ccc(N(C)C(=O)[C@H](Cc2ccccc2)NC(=O)NS(=O)(=O)N(c2ccccc2)C(C)C)cc1", "note": "[CA-25]", "values": [
      {"measurement": "EC50", "setting": "[1]", "result": 1.01, "unit": "µM"},
      {"measurement": "CC50 at 4 days", "setting": "[2]", "result": "> 33.3", "unit": "µM"}
    ]},
    {"compound": "COc1ccc(N(C)C(=O)[C@H](Cc2ccccc2)NC(=O)NS(=O)(=O)Nc2ccccc2OC(F)(F)F)cc1", "note": "[CA-26]", "values": [
      {"measurement": "EC50", "setting": "[1]", "result": 0.27, "unit": "µM"},
      {"measurement": "CC50 at 4 days", "setting": "[2]", "result": "> 100", "unit": "µM"}
    ]},
    {"compound": "COc1ccc(N(C)C(=O)[C@H](Cc2ccccc2)NC(=O)NS(=O)(=O)Nc2cccc(-c3cnco3)c2)cc1", "note": "[CA-27]", "values": [
      {"measurement": "EC50", "setting": "[1]", "result": 0.31, "unit": "µM"},
      {"measurement": "CC50 at 4 days", "setting": "[2]", "result": "> 100", "unit": "µM"}
    ]}
  ]
}
